Literature values in patent US5834431A, “Des-Arg^9 -BK antagonists” (Cortech, Inc., priority 1995, dated 1998).

Key:
[1] = test system: angiogenic response elicited by bradykinin; conditions: literature, Hu et al. 1993; cited from earlier work
[2] = test system: type I diabetic hyperglycemia; conditions: literature, Zuccollo et al. 1995; cited from earlier work

**Q.** With [Leu^8, des-Arg^9 ]-bradykinin as the substance, how does the “effect on angiogenic response elicited by bradykinin” value [1] read?
**A.** The value was “inhibit the angiogenic response elicited by bradykinin”.

**Q.** And the “effect on type I diabetic hyperglycemia” value [2]?
**A.** Its value is “cause a reduction in type I diabetic hyperglycemia”.
